This note sets out measurements from article PMC12004446, “Inhibition by 4-(4-Bromo-2-oxo-3H-benzimidazol-1-yl)-N-(4-iodophenyl)piperidine-1-carboxamide (TH5487) of the Activity of Human 8-Oxoguanine DNA Glycosylase-1 (OGG1) for the Excision of 2,6-Diamino-4-hydroxy-5-formamidopyrimidine, 4,6-Diamino-5-formamidopyrimidine, and 8-Oxoguanine from Oxidatively …” (Biochemistry, 2025).

The target of this test is T1, human 8-oxoguanine DNA glycosylase-1 (hOGG1) (Homo sapiens, UniProt O15527).
T1 construct: gene OGG1
As to the kind of experiment: fluorescence-based 8-oxo-Gua duplex oligodeoxynucleotide incision assay with purified hOGG1; also GC-MS/MS of lesion excision from genomic DNA. The format is biochemical.

T1 sequence (O15527 whole entry): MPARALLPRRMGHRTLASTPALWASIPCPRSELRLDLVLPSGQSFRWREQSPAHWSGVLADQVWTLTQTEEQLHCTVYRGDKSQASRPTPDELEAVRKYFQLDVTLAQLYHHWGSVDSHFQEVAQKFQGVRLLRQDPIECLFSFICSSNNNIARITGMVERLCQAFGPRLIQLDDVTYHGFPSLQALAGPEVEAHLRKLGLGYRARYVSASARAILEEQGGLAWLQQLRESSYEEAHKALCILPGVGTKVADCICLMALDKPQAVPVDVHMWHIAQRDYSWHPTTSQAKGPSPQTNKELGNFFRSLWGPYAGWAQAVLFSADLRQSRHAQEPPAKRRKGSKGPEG

The term IC50 denotes the concentration that gives 50% inhibition. Read a high IC50 as lower potency. As to `O=C(Nc1ccc(I)cc1)N1CCC(n2c(=O)[nH]c3c(Br)cccc32)CC1` [TH5487, 4-(4-bromo-2-oxo-3H-benzimidazol-1-yl)-N-(4-iodophenyl)piperidine-1-carboxamide], 800 nM corresponded to half-maximal inhibition (IC50).
